According to US8022089B2, “Isoxazoline-substituted benzamide compound and pesticide” (Nissan Chemical Industries, Ltd., priority 2004, dated 2011):

- melting point: 156 to 158 °C
Compound: CNc1cc(C2=NOC(c3cc(Cl)cc(Cl)c3)(C(F)(F)F)C2)ccc1C(=O)NCC(F)(F)F (stereo not shown)
